Legend:
Assay in all cases: relative viability (nuclei count vs DMSO), 5 days (fraction); higher = more cells survive
NCI-H1355 = tested on: NCI-H1355
Outline: (§1)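 Relative viability equals treated-well nuclei counts divided by vehicle-well nuclei counts. Counts came from 4× images of lung cancer cell lines grown in 1536-well plates for 5 days after pin-tool dosing on the day after seeding. Dosing used one drug alone or a fixed anchor-drug dose plus five library-drug doses (not always all listed) in √10 steps, and values are medians of duplicate plates.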

LCLC-103H = tested on: LCLC-103H
Outline: as §1

HCC-827 = tested on: HCC-827
Outline: as §1

LCLC-97TM1 = tested on: LCLC-97TM1
Outline: as §1

NCI-H2405 = tested on: NCI-H2405
Outline: as §1

SK-LU-1 = tested on: SK-LU-1
Outline: as §1

NCI-H1395 = tested on: NCI-H1395
Outline: as §1

NCI-H2087 = tested on: NCI-H2087
Outline: as §1

NCI-H3122 = tested on: NCI-H3122
Outline: as §1

CAL-12T = tested on: CAL-12T
Outline: as §1

NCI-H322M = tested on: NCI-H322M
Outline: as §1

NCI-H1437 = tested on: NCI-H1437
Outline: as §1

201T = tested on: 201T
Outline: as §1

BEN = tested on: BEN
Outline: as §1

NCI-H2023 = tested on: NCI-H2023
Outline: as §1

NCI-H1793 = tested on: NCI-H1793
Outline: as §1

NCI-H647 = tested on: NCI-H647
Outline: as §1

NCI-H2228 = tested on: NCI-H2228
Outline: as §1

NCI-H727 = tested on: NCI-H727
Outline: as §1

HOP-62 = tested on: HOP-62
Outline: as §1

NCI-H1650 = tested on: NCI-H1650
Outline: as §1

LXF-289 = tested on: LXF-289
Outline: as §1

RERF-LC-KJ = tested on: RERF-LC-KJ
Outline: as §1

HCC-44 = tested on: HCC-44
Outline: as §1

Which results are given for `C[C@@H]1CN(CC(=O)Nc2ccc3c(c2)Cc2cccc(-c4cc(=O)cc(N5CCOCC5)o4)c2S3)C[C@H](C)O1` + O=C(c1cc(Cc2n[nH]c(=O)c3ccccc23)ccc1F)N1CCN(C(=O)C2CC2)CC1 [Olaparib] (partner 8 µM)?
relative viability (NCI-H1355; first compound 0.04 µM): 0.783; relative viability (NCI-H1355; first compound 0.1265 µM): 0.699; relative viability (NCI-H1355; first compound 0.4 µM): 0.664; relative viability (NCI-H1355; first compound 4 µM): 0.482; relative viability (LCLC-103H; first compound 0.04 µM): 0.71; relative viability (LCLC-103H; first compound 0.1265 µM): 0.739; relative viability (LCLC-103H; first compound 0.4 µM): 0.771; relative viability (LCLC-103H; first compound 4 µM): 0.722; relative viability (HCC-827; first compound 0.04 µM): 0.674; relative viability (HCC-827; first compound 0.1265 µM): 0.653; relative viability (HCC-827; first compound 0.4 µM): 0.678; relative viability (HCC-827; first compound 4 µM): 0.438; relative viability (LCLC-97TM1; first compound 0.1265 µM): 0.381; relative viability (LCLC-97TM1; first compound 0.4 µM): 0.462; relative viability (LCLC-97TM1; first compound 4 µM): 0.37; relative viability (NCI-H2405; first compound 0.04 µM): 0.938; relative viability (NCI-H2405; first compound 0.1265 µM): 0.93; relative viability (NCI-H2405; first compound 0.4 µM): 0.837; relative viability (NCI-H2405; first compound 4 µM): 0.578; relative viability (SK-LU-1; first compound 0.04 µM): 0.566; relative viability (SK-LU-1; first compound 0.1265 µM): 0.667; relative viability (SK-LU-1; first compound 0.4 µM): 0.575; relative viability (SK-LU-1; first compound 4 µM): 0.219; relative viability (NCI-H1395; first compound 0.1265 µM): 0.482; relative viability (NCI-H1395; first compound 0.4 µM): 0.506; relative viability (NCI-H1395; first compound 4 µM): 0.458; relative viability (NCI-H2087; first compound 0.04 µM): 0.649; relative viability (NCI-H2087; first compound 0.1265 µM): 0.546; relative viability (NCI-H2087; first compound 0.4 µM): 0.602; relative viability (NCI-H2087; first compound 4 µM): 0.214; relative viability (NCI-H3122; first compound 0.04 µM): 0.607; relative viability (NCI-H3122; first compound 0.1265 µM): 0.591; relative viability (NCI-H3122; first compound 0.4 µM): 0.645; relative viability (NCI-H3122; first compound 4 µM): 0.518; relative viability (CAL-12T; first compound 0.04 µM): 0.81; relative viability (CAL-12T; first compound 0.1265 µM): 0.739; relative viability (CAL-12T; first compound 0.4 µM): 0.656; relative viability (CAL-12T; first compound 4 µM): 0.168; relative viability (NCI-H322M; first compound 0.04 µM): 0.632; relative viability (NCI-H322M; first compound 0.1265 µM): 0.794; relative viability (NCI-H322M; first compound 0.4 µM): 0.81; relative viability (NCI-H322M; first compound 4 µM): 0.643; relative viability (NCI-H1437; first compound 0.04 µM): 0.613; relative viability (NCI-H1437; first compound 0.1265 µM): 0.635; relative viability (NCI-H1437; first compound 0.4 µM): 0.598; relative viability (NCI-H1437; first compound 4 µM): 0.352; relative viability (201T; first compound 0.04 µM): 0.839; relative viability (201T; first compound 0.1265 µM): 0.816; relative viability (201T; first compound 0.4 µM): 0.793; relative viability (201T; first compound 4 µM): 0.783; relative viability (BEN; first compound 0.04 µM): 0.969; relative viability (BEN; first compound 0.1265 µM): 1.13; relative viability (BEN; first compound 0.4 µM): 1.11; relative viability (BEN; first compound 4 µM): 0.69; relative viability (NCI-H2023; first compound 0.04 µM): 0.441; relative viability (NCI-H2023; first compound 0.1265 µM): 0.371; relative viability (NCI-H2023; first compound 0.4 µM): 0.329; relative viability (NCI-H2023; first compound 4 µM): 0.148; relative viability (NCI-H1793; first compound 0.04 µM): 1.01; relative viability (NCI-H1793; first compound 0.1265 µM): 0.784; relative viability (NCI-H1793; first compound 0.4 µM): 0.86; relative viability (NCI-H1793; first compound 4 µM): 0.255; relative viability (NCI-H647; first compound 0.04 µM): 0.611; relative viability (NCI-H647; first compound 0.1265 µM): 0.436; relative viability (NCI-H647; first compound 0.4 µM): 0.417; relative viability (NCI-H647; first compound 4 µM): 0.0936; relative viability (NCI-H2228; first compound 0.04 µM): 0.781; relative viability (NCI-H2228; first compound 0.1265 µM): 0.505; relative viability (NCI-H2228; first compound 0.4 µM): 0.571; relative viability (NCI-H2228; first compound 4 µM): 0.174; relative viability (NCI-H727; first compound 0.04 µM): 0.831; relative viability (NCI-H727; first compound 0.1265 µM): 0.77; relative viability (NCI-H727; first compound 0.4 µM): 0.835; relative viability (NCI-H727; first compound 4 µM): 0.64; relative viability (HOP-62; first compound 0.04 µM): 0.283; relative viability (HOP-62; first compound 0.1265 µM): 0.442; relative viability (HOP-62; first compound 0.4 µM): 0.452; relative viability (HOP-62; first compound 4 µM): 0.0812; relative viability (NCI-H1650; first compound 0.04 µM): 0.731; relative viability (NCI-H1650; first compound 0.1265 µM): 0.713; relative viability (NCI-H1650; first compound 0.4 µM): 0.967; relative viability (NCI-H1650; first compound 4 µM): 0.282; relative viability (LXF-289; first compound 0.04 µM): 0.998; relative viability (LXF-289; first compound 0.1265 µM): 1.1; relative viability (LXF-289; first compound 0.4 µM): 1.21; relative viability (LXF-289; first compound 4 µM): 1.05; relative viability (RERF-LC-KJ; first compound 0.04 µM): 0.917; relative viability (RERF-LC-KJ; first compound 0.1265 µM): 0.984; relative viability (RERF-LC-KJ; first compound 0.4 µM): 1.01; relative viability (RERF-LC-KJ; first compound 4 µM): 0.323; relative viability (HCC-44; first compound 0.04 µM): 0.94; relative viability (HCC-44; first compound 0.1265 µM): 1.02; relative viability (HCC-44; first compound 0.4 µM): 0.955; relative viability (HCC-44; first compound 4 µM): 0.969

Source: the supplement of paper PMC10307832
